Data reported in US10259810B2, “N-sulfonylated pyrazolo[3,4-b]pyridin-6-carboxamides and method of use” (AbbVie S.à.r.l., priority 2015, dated 2019).

Legend:
ΔF508-CFTR [1] = molecular target: T1, ΔF508-CFTR (Homo sapiens, UniProt P13569, DEL508-508); experiment: CFTR cell surface levels using HRP-tagged ΔF508-CFTR expressing CFBE cells, in the presence of a co-corrector; assay type: cell-based; settings: HRP-tagged ΔF508-CFTR CFBE cells, in the presence of 3 μM co-corrector; for EC50: read-out: EC50
T1 construct: host or cells: CFBE41o-, doxycycline-inducible
T1 sequence (P13569 with tags, fused parts or gaps DEL508-508): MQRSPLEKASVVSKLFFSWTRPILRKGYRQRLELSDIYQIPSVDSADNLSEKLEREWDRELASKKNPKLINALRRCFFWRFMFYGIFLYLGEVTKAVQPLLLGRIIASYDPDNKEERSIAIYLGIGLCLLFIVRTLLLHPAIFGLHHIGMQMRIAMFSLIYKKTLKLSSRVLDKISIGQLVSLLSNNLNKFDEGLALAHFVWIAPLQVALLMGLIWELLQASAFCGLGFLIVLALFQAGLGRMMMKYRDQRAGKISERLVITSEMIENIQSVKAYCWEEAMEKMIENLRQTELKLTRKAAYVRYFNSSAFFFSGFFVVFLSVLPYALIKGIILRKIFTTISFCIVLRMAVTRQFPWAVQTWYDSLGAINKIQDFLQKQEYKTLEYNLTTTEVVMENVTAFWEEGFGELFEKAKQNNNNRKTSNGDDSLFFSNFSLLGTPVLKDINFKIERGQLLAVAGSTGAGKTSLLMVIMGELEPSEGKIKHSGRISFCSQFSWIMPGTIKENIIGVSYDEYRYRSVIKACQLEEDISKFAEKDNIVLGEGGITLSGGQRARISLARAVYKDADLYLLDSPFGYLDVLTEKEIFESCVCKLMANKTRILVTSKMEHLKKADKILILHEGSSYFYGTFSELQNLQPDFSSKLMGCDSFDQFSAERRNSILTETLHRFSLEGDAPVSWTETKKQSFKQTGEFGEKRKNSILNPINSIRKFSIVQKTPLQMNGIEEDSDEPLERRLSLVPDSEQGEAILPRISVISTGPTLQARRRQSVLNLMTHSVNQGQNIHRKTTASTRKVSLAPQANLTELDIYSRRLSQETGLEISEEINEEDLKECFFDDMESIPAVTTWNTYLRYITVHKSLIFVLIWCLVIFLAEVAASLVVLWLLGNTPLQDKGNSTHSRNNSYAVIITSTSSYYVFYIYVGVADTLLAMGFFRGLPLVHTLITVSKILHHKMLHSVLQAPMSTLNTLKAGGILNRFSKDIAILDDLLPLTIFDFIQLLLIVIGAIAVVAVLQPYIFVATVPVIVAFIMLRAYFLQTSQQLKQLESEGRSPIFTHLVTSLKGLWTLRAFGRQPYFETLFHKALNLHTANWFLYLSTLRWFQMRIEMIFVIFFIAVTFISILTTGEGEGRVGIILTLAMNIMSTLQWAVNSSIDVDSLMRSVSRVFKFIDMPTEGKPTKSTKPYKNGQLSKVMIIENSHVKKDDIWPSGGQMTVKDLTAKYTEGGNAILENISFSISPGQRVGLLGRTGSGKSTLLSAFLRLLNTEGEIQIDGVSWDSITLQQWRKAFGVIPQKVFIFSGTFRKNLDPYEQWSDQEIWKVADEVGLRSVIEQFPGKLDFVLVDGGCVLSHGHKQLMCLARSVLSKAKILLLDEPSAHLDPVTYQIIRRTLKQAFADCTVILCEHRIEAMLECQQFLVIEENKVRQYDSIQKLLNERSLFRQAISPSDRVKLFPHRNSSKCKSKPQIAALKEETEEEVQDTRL
Excerpt: (§1) Measuring CFTR Cell Surface Levels Using HRP-Tagged ΔF508-CFTR Expressing CFBE Cells
(§2) The HRP-tagged ΔF508-CFTR cell assay measures the expression of CFTR-ΔF508 at the plasma membrane. CFTR-ΔF508 has a folding defect leading to absence of protein at the plasma membrane. This assay is used to evaluate the capacity of compounds to increase the expression of CFTR-ΔF508 at the plasma membrane. The CFTR-ΔF508 is tagged with HRP (horse radish peroxidase enzyme) within the ECL4 (Extracellular loop 4) of CFTR (Phuan, P.-W. et al. Synergy-based small-molecule screen using a human lung epithelial cell line yields ΔF508-CFTR correctors that augment VX-809 maximal efficacy. Mol. Pharmacol. 86, 42-51 (2014)). When HRP-tagged ΔF508-CFTR is present at the plasma membrane, the HRP enzyme activity can be measured. The amount of CFTR-ΔF508 that can be rescued to the plasma membrane is correlated with the amount of functional enzyme that can be measured.
(§3) There are several ways to measure the capacity of compounds to rescue CFTR-ΔF508 to the plasma membrane; either compounds are evaluated on their own and the impact on plasma membrane levels is measured or compounds are evaluated in combination with a co-corrector, i.e. a compound that rescues CFTR-ΔF508 to the plasma membrane but rescue can be enhanced by addition of compounds due to a complementary mode of action.
Activity of Compounds in Combination with Co-Corrector:
For this purpose doxycycline-inducible ΔF508-CFTR-HRP expressing CFBE4lo− cells (obtained from Gergely Lukacs, McGill University) were maintained in MEM (Minimum Essential Medium, Gibco; 31095) supplemented with 10% fetal bovine serum (Hyclone; SV30160.03) under puromycin (3 μg/mL) and G418 selection (0.2 mg/mL). For compound testing, cells were seeded at 4000 cells/well in white 384-well plates (Greiner; 781080) in 50 μL of medium containing 0.5 μg/mL doxycycline and incubated for 68 hours at 37° C., 5% CO2. On day four, 10 μL of test compounds diluted in PBS (phosphate buffered saline) were added to the plates at a final DMSO concentration of 0.1%. In order to measure compound synergy with a co-corrector, 3 μM co-corrector (3-[(2R,4R)-4-({[1-(2,2-difluoro-1,3-benzodioxol-5-yl)cyclopropyl]carbonyl}amino)-7-methoxy-3,4-dihydro-2H-chromen-2-yl]benzoic acid) was added along with test compounds. All compound plates contained negative controls (DMSO) and positive controls (3 μM co-corrector). Cell plates were incubated at 33° C., 5% CO2 for 20 hours. On day five, the cells were washed five times with phosphate-buffered saline, and HRP activity was assayed by the addition of 50 μL/well of HRP substrate (SuperSignal™ West Pico Chemiluminescent Substrate, Thermo Scientific; 34080). After incubation for 15 minutes in the dark, the chemiluminescence was measured using a plate reader (EnVision®, Perkin Elmer). Raw data were normalized to percentage activity values using the equation: 100×(Sample−Negative control)/(Positive control−Negative Control).

ΔF508-CFTR [2] = molecular target: T1, ΔF508-CFTR; experiment: CFTR cell surface levels using HRP-tagged ΔF508-CFTR expressing CFBE cells, intrinsic corrector capacity; assay type: cell-based; parameters: % Activation: concentration or dose not given beside the values; settings: HRP-tagged ΔF508-CFTR expressing CFBE41o- cells, compound alone (intrinsic corrector capacity), 20 hours at 33° C.; for EC50: read-out: EC50
Excerpt: as §1, §2, §3
Activity of Compounds for their Intrinsic Corrector Capacity:
For this purpose doxycycline-inducible ΔF508-CFTR-HRP expressing CFBE4lo− cells (obtained from Gergely Lukacs, McGill University) were maintained in MEM (Gibco; 31095) supplemented with 10% fetal bovine serum (Hyclone; SV30160.03) under puromycin (3 μg/mL) and G418 selection (0.2 mg/mL). For compound testing, cells were seeded at 4000 cells/well in white 384-well plates (Greiner; 781080) in 50 μL medium containing 0.5 μg/mL doxycycline and incubated for 68 hours at 37° C., 5% CO2. On day four, […] compounds diluted in PBS were added to the plates at a final DMSO concentration of 0.1%. All compound plates contained negative controls (DMSO) and positive controls ([…] corrector, 3-[(2R,4R)-4-({[1-(2,2-difluoro-1,3-benzodioxol-5-yl)cyclopropyl]carbonyl}amino)-7-methoxy-3,4-dihydro-2H-chromen-2-yl]benzoic acid). Cell plates were incubated at 33° C., 5% CO2 for 20 hours. On day five, the cells were washed five times with phosphate-buffered saline, and HRP activity was assayed by the addition of 50 μL/well of HRP substrate (SuperSignal™ West Pico Chemiluminescent Substrate, Thermo Scientific; 34080). After incubation for 15 minutes in the dark, chemiluminescence was measured using a plate reader (EnVision®, Perkin Elmer). Raw data were normalized to percentage activity values using the equation: 100×(Sample−Negative control)/(Positive control−Negative Control).

| SMILES | % Activation (ΔF508-CFTR [1]) [%] | EC50 (ΔF508-CFTR [1]) [nM] | % Activation (ΔF508-CFTR [2]) [%] | EC50 (ΔF508-CFTR [2]) [nM] |
| --- | --- | --- | --- | --- |
| C[C@H](C1CCN(c2cc(C(=O)NS(=O)(=O)N(C)C)nc3c2c(C2CCC2)nn3-c2ccc(F)cc2)CC1)N1CCOCC1 (single isomer, unassigned) [Compound 479] | 524.1 | 109 | 305.7 | 197 |
| COCC1CCN(c2cc(C(=O)NS(=O)(=O)CCl)nc3c2c(C2CCC2)nn3-c2ccccc2)CC1 [AC07] | 466.9 | 76.6 | 268.5 | 139 |
| Cc1nn(-c2ccccc2)c2nc(C(=O)NS(=O)(=O)c3ccccc3)cc(-c3ccc(N4CCOCC4)cc3)c12 [Compound 2, N-(benzenesulfonyl)-3-methyl-4-[4-(morpholin-4-yl)phenyl]-1-phenyl-1H-pyrazolo[3,4-b]pyridine-6-carboxamide] | 431.5 | 1120 | 226.75 | 1870 |
| Cc1nn(-c2ccccc2)c2nc(C(=O)NS(=O)(=O)C3CC3)cc(-c3ccc(N4CCOCC4)cc3)c12 [Compound 4, N-(cyclopropanesulfonyl)-3-methyl-4-[4-(morpholin-4-yl)phenyl]-1-phenyl-1H-pyrazolo[3,4-b]pyridine-6-carboxamide] | 405.8 | 298 | 246.7 | 838 |
| Cc1nn(-c2cccc(OC(F)(F)F)c2)c2nc(C(=O)NS(C)(=O)=O)cc(-c3ccc(N4CCOCC4)cc3)c12 [Compound 6, N-(methanesulfonyl)-3-methyl-4-[4-(morpholin-4-yl)phenyl]-1-[3-(trifluoromethoxy)phenyl]-1H-pyrazolo[3,4-b]pyridine-6-carboxamide] | 387.1 | 511 | 232.1 | 808 |
| CC(C)c1nn(-c2ccccc2)c2nc(C(=O)NS(C)(=O)=O)cc(-c3ccc(N(C)C)cc3)c12 [Compound 7, 4-[4-(dimethylamino)phenyl]-N-(methanesulfonyl)-1-phenyl-3-(propan-2-yl)-1H-pyrazolo[3,4-b]pyridine-6-carboxamide] | 420.63 | 554 | 245 | 636 |
| Cc1nn(-c2cccc(C(F)(F)F)c2)c2nc(C(=O)NS(C)(=O)=O)cc(-c3ccc(N4CCOCC4)cc3)c12 [Compound 8, N-(methanesulfonyl)-3-methyl-4-[4-(morpholin-4-yl)phenyl]-1-[3-(trifluoromethyl)phenyl]-1H-pyrazolo[3,4-b]pyridine-6-carboxamide] | 441.85 | 854 | 270.6 | 900 |
| CC(C)c1nn(C2CCCCC2)c2nc(C(=O)NS(C)(=O)=O)cc(-c3cnc(N(C)C)nc3)c12 [Compound 9, 1-cyclohexyl-4-[2-(dimethylamino)pyrimidin-5-yl]-N-(methanesulfonyl)-3-(propan-2-yl)-1H-pyrazolo[3,4-b]pyridine-6-carboxamide] | 335 | 505 | 143.05 | 786 |
| CC(C)(C)c1nn(C2CCCC2)c2nc(C(=O)NS(C)(=O)=O)cc(-c3ccc(N4CCOCC4)nc3)c12 [Compound 12, 3-tert-butyl-1-cyclopentyl-N-(methanesulfonyl)-4-[6-(morpholin-4-yl)pyridin-3-yl]-1H-pyrazolo[3,4-b]pyridine-6-carboxamide] | 364.15 | 714 | 161.15 | 1070 |
| COc1ccc(-c2cc(C(=O)NS(C)(=O)=O)nc3c2c(C)nn3-c2ccccc2)cc1 [Compound 14, N-(methanesulfonyl)-4-(4-methoxyphenyl)-3-methyl-1-phenyl-1H-pyrazolo[3,4-b]pyridine-6-carboxamide] | 335.6 | 1370 | 148.9 | 1430 |
| CCS(=O)(=O)NC(=O)c1cc(-c2ccc(OC)cc2)c2c(C)nn(-c3ccccc3)c2n1 [Compound 15, N-(ethanesulfonyl)-4-(4-methoxyphenyl)-3-methyl-1-phenyl-1H-pyrazolo[3,4-b]pyridine-6-carboxamide] | 346.15 | 852 | 151.65 | 1190 |
| CC(C)c1nn(-c2cccc(N3CCCC3)c2)c2nc(C(=O)NS(C)(=O)=O)cc(-c3ccc(N4CCOCC4)cc3)c12 [Compound 16, N-(methanesulfonyl)-4-[4-(morpholin-4-yl)phenyl]-3-(propan-2-yl)-1-[3-(pyrrolidin-1-yl)phenyl]-1H-pyrazolo[3,4-b]pyridine-6-carboxamide] | 649.9 | 459 | 469.75 | 543 |
| COc1ccc(-n2nc(C(C)C)c3c(-c4ccc(N(C)C)cc4)cc(C(=O)NS(C)(=O)=O)nc32)cn1 [Compound 17, 4-[4-(dimethylamino)phenyl]-N-(methanesulfonyl)-1-(6-methoxypyridin-3-yl)-3-(propan-2-yl)-1H-pyrazolo[3,4-b]pyridine-6-carboxamide] | 320 | 1120 | 140.75 | 1230 |
| COc1ccc(-c2cc(C(=O)NS(C)(=O)=O)nc3c2c(C)nn3-c2ccc(C)c(Cl)c2)cc1 [Compound 18, 1-(3-chloro-4-methylphenyl)-N-(methanesulfonyl)-4-(4-methoxyphenyl)-3-methyl-1H-pyrazolo[3,4-b]pyridine-6-carboxamide] | 217.8 | 1110 | 64.675 | 2270 |
| CCS(=O)(=O)NC(=O)c1cc(N2CCCCC2)c2c(C)nn(-c3ccccc3)c2n1 [Compound 19, N-(ethanesulfonyl)-3-methyl-1-phenyl-4-(piperidin-1-yl)-1H-pyrazolo[3,4-b]pyridine-6-carboxamide] | 304.05 | 1630 | 140.85 | 2650 |
| CC(C)c1nn(-c2ccccc2)c2nc(C(=O)NS(C)(=O)=O)cc(-c3cnc(N4CCOCC4)nc3)c12 [Compound 20, N-(methanesulfonyl)-4-[2-(morpholin-4-yl)pyrimidin-5-yl]-1-phenyl-3-(propan-2-yl)-1H-pyrazolo[3,4-b]pyridine-6-carboxamide] | 417.5 | 546 | 210.3 | 669 |
